Tested on: TNF-alpha
Assay: TNF-alpha production by PBMC from patients with rheumatoid arthritis, CBA
Format: cell-based, human
Conditions: 24 hours, mean ± standard error, n=7
Experimental: CBA protocol was followed according to the manufacturer's instructions. The election of microparticles was performed following the summary of Figure 1.
The acquisition on samples was performed with the BD FACS Array Bioanalyser System (FACSArray, Becton Dickinson, San José, CA, USA) and the analysis of the results was completed with the software FCAP Array (Becton Dickinson) in a PC computer.
Briefly, the experimental protocol consisted of a plate pre-washing out with Wash Buffer. After decantation, the mixture of capture microparticles was re-suspended in the vortex. Standards and samples were added in the adequate dilution. After permanent stirring incubation during 1 h, the PE detection reagent was added and incubated again during 2h at room temperature. After a washing-out, the acquisition was performed in the flow cytometer. Table 3. -Kit CBA Human Soluble Protein Multiplex Flex Set System.
In another experiment, PBMC (5 x 10^4 cells per well) from 7 patients with rheumatoid arthritis were cultured in duplicate in 200 µl of complete medium supplemented with the highest solvent (10^-6 M), and 10^-6 M, 10^-7 M and 10^-8 M compound 12 and in the presence and absence of either LPS (10 µg/ml), or anti-CD3 (12.5ng/ml) (Orthoclone OKT3, Ortho Pharmaceutical Corporation, Raritan NJ, USA) + anti-CD28 (1/3x10^5) (Clon 15E8, Menarini, Madrid, Spain), during 24 hours. Culture supernatants were frozen at -20°C and the concentration of TNF-alpha quantified by BD FACS Array Bioanalyser by using CBA Flex Set (Becton Dickinson), specific for determining the concentration of that cytokine, following the manufacturer instructions.

In the case of `Cc1nc(OC2CCCC2)c(-c2ccc(S(C)(=O)=O)cc2)s1` [compound 12, 4-cyclopentyloxy-5-(4-methylsulfonyl-phenyl)-2-methylthiazole], the “TNF-alpha production in PMBC from patients with rheumatoid arthritis” value (from here on “TNF-alpha production in PMBC”) (LPS (10µg/ml), 10^-6 M, vehicle 700.39±180.00, p 0.05) is reported as 383.75±75.00 (0.05) pg/ml, the “TNF-alpha production in PMBC” value (LPS (10µg/ml), 10^-7 M, vehicle 700.39±180.00, p 0.237) is reported as 626.57±150.00 (0.237) pg/ml and the “TNF-alpha production in PMBC” value (LPS (10µg/ml), 10^-8 M, vehicle 700.39±180.00, p 0.499) is reported as 683.40±120.00 (0.499) pg/ml. For the same compound, the “TNF-alpha production in PMBC” value (anti-CD3 (12.5 ng/ml) + anti-CD28 (1/3x10^5), 10^-6 M, vehicle 648.72±90.00, p 0.31) was 532.07±80.00 (0.31) pg/ml, the “TNF-alpha production in PMBC” value (anti-CD3 (12.5 ng/ml) + anti-CD28 (1/3x10^5), 10^-7 M, vehicle 648.72±90.00, p 0.612) was 568.47±97.00 (0.612) pg/ml and the “TNF-alpha production in PMBC” value (anti-CD3 (12.5 ng/ml) + anti-CD28 (1/3x10^5), 10^-8 M, vehicle 648.72±90.00, p 0.398) was 695.81±79.00 (0.398) pg/ml. The “TNF-alpha production in PMBC” value (medium, 10^-6 M, vehicle 100.64±40.00, p 0.735) was 177.32±95.00 (0.735) pg/ml, the “TNF-alpha production in PMBC” value (medium, 10^-7 M, vehicle 100.64±40.00, p 0.735) was 191.33±80.00 (0.735) pg/ml and the “TNF-alpha production in PMBC” value (medium, 10^-8 M, vehicle 100.64±40.00, p 0.735) was 131.95±85.00 (0.735) pg/ml.

— patent EP2135864A1, “5-(4-methanesulfonyl-phenyl)-thiazole derivatives for the treatment of acute and chronic inflammatory diseases” (FAES FARMA, S.A., priority 2008, dated 2009)
